{
  "source": "ChEMBL document CHEMBL4732086",
  "about": "“Targeting nuclear protein TDP-43 by cell division cycle kinase 7 inhibitors: A new therapeutic approach for amyotrophic lateral sclerosis” (Eur J Med Chem, 2021)",
  "key": {"[1]": {"molecular_target": "Cell division cycle 7-related protein kinase (Homo sapiens) (UniProt O00311)", "experiment": "Inhibition of human CDC7 in human SH-SY5Y cells assessed as prevention of ethacrynic acid-induced cell death preincubated for 1 hr followed by incubation with ethacrynic acid for 24 hrs measured at 10 uM by MTT assay relative to control", "format": "cell-based"}, "[2]": {"molecular_target": "Glycogen synthase kinase-3 alpha (Homo sapiens) (UniProt P49840)", "experiment": "Inhibition of recombinant human full length GST-tagged GSK3A expressed in baculovirus expression system using serine/threonine-09 peptide as substrate at 10 uM incubated for 60 mins in presence of ATP by Z'-LYTE assay"}, "Homo sapiens": {"organism": "Homo sapiens", "experiment": "Inhibition of recombinant full length human His-tagged CDK1/CyclinB expressed in baculovirus expression system using serine/threonine-18 peptide as substrate at 10 uM incubated for 60 mins in presence of ATP by Z'-LYTE assay"}, "[3]": {"molecular_target": "CDC7/DBF4 (Cell division cycle 7-related protein kinase/Activator of S phase kinase) (Homo sapiens) (UniProt Q9UBU7+O00311)", "experiment": "Competitive inhibition of recombinant human full length N-terminal GST tagged CDC7/Dbf4 expressed in baculovirus infected Sf9 insect cells assessed as inhibition of substrate phosphorylation using PDKtide as substrate at 5 to 10 uM measured after 60 mins by ATP assay", "details": "dose 5-10 µM"}, "[4]": {"molecular_target": "Serine/threonine-protein kinase pim-3 (Homo sapiens) (UniProt Q86V86)", "experiment": "Inhibition of recombinant human GST-tagged PIM3 expressed in baculovirus expression system using serine/threonine-07 peptide as substrate at 10 uM by Z'-LYTE assay", "details": "time 60.0 min"}, "[5]": {"molecular_target": "T1, Serine/threonine-protein kinase Chk1 (Homo sapiens) (UniProt O14757)", "T1 sequence (whole entry)": "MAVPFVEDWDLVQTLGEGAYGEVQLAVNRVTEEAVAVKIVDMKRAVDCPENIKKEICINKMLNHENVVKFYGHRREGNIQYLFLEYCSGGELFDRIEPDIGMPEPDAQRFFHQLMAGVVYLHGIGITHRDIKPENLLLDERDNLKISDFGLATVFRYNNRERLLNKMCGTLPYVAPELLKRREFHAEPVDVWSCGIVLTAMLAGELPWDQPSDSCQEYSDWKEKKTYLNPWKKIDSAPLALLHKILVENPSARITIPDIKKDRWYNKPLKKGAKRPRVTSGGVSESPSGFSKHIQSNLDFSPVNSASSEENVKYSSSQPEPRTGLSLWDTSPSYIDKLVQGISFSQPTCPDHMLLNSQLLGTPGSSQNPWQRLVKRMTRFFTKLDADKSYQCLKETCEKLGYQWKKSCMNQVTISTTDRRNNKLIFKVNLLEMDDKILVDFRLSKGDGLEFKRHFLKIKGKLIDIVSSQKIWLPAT", "experiment": "Inhibition of human CHK1 using serine/threonine-07 peptide as substrate at 10 uM incubated for 60 mins in presence of ATP by Z'-LYTE assay"}, "[6]": {"molecular_target": "CDK2/Cyclin A2 (Homo sapiens) (UniProt P24941+P20248)", "experiment": "Inhibition of recombinant full length human His-tagged CDK2/Cyclin A expressed in baculovirus expression system using serine/threonine-12 peptide as substrate at 10 uM incubated for 60 mins in presence of ATP by Z'-LYTE assay"}, "[7]": {"molecular_target": "Vascular endothelial growth factor receptor 2 (Homo sapiens) (UniProt P35968)", "experiment": "Inhibition of recombinant human His-tagged KDR expressed in baculovirus expression system using Tyr-01 peptide as substrate at 10 uM incubated for 60 mins in presence of ATP by Z'-LYTE assay"}, "[8]": {"molecular_target": "Glycogen synthase kinase-3 beta (Homo sapiens) (UniProt P49841)", "experiment": "Inhibition of recombinant human full length His-tagged GSK3B expressed in baculovirus expression system using serine/threonine-09 peptide as substrate at 10 uM incubated for 60 mins in presence of ATP by Z'-LYTE assay"}, "[9]": {"molecular_target": "Tyrosine-protein kinase Lck (Homo sapiens) (UniProt P06239)", "experiment": "Inhibition of recombinant human His-tagged LCK expressed in baculovirus expression system using Tyr-02 peptide as substrate at 10 uM incubated for 60 mins in presence of ATP by Z'-LYTE assay"}, "[10]": {"molecular_target": "T2, Aurora kinase A (Homo sapiens) (UniProt O14965)", "T2 sequence (whole entry)": "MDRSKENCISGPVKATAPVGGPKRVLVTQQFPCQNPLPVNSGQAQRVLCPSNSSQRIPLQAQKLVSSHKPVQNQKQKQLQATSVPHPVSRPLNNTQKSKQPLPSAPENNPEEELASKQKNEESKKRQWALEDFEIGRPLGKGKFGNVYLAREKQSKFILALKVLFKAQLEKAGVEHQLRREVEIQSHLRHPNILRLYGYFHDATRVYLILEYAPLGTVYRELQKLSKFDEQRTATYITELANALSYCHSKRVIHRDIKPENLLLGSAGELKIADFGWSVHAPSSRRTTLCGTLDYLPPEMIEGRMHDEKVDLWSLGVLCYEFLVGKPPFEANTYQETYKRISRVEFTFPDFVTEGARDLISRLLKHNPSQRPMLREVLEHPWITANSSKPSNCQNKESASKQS", "experiment": "Inhibition of recombinant human full length AURKA expressed in baculovirus expression system using Ser/Thr-01 peptide as substrate at 10 uM after 1 hr in presence of ATP by Z'LYTE assay"}, "[11]": {"molecular_target": "Tyrosine-protein kinase JAK2 (Homo sapiens) (UniProt O60674)", "experiment": "Inhibition of recombinant human GST-tagged JAK2 expressed in baculovirus expression system using Tyr-06 peptide as substrate at 10 uM incubated for 60 mins in presence of ATP by Z'-LYTE assay"}, "[12]": {"molecular_target": "RAC-beta serine/threonine-protein kinase (Homo sapiens) (UniProt P31751)", "experiment": "Inhibition of recombinant full length human His-tagged AKT2 using serine/threonine-06 peptide as substrate at 10 uM incubated for 60 mins in presence of ATP by Z'-LYTE assay"}, "SH-SY5Y": {"test_system": "SH-SY5Y", "experiment": "Neuroprotective activity in human SH-SY5Y cells assessed as decrease in ethacrynic acid-induced TDP-43 phosphorylation preincubated for 1 hr followed by incubation with ethacrynic acid for 24 hrs measured at 10 uM by Western blot assay", "format": "functional, cell-based"}, "[13]": {"molecular_target": "Aurora kinase B (Homo sapiens) (UniProt Q96GD4)", "experiment": "Inhibition of recombinant full length His-tagged human AURKB expressed in baculovirus expression system using Ser/Thr-01 peptide as substrate at 10 uM incubated for 60 mins in presence of ATP by Z'-LYTE assay"}, "[14]": {"molecular_target": "Tyrosine-protein kinase ABL1 (Homo sapiens) (UniProt P00519)", "experiment": "Inhibition of recombinant full length human His-tagged ABL1 expressed in baculovirus expression system using tyrosine-2 peptide as substrate at 10 uM incubated for 60 mins in presence of ATP by Z'-LYTE assay"}, "[15]": {"molecular_target": "Mitogen-activated protein kinase 7 (Homo sapiens) (UniProt Q13164)", "experiment": "Inhibition of recombinant human full length GST-tagged MAPK7 expressed in baculovirus expression system using serine/threonine-04 peptide as substrate at 10 uM by Z'-LYTE assay", "details": "time 60.0 min"}},
  "note": "The source made the active and inactive calls. No cut-off for these calls is given here.",
  "data": [
    {"smiles": "c1ccc(CSc2ncnc3[nH]cnc23)cc1", "values": [
      {"measurement": "inhibition", "setting": "[1]", "value": "Active"},
      {"measurement": "inhibition", "setting": "[2]", "value": "inactive"},
      {"measurement": "inhibition", "setting": "Homo sapiens", "value": "inactive"},
      {"measurement": "inhibition", "setting": "[3]", "value": "Active"},
      {"measurement": "inhibition", "setting": "[4]", "value": "inactive"},
      {"measurement": "inhibition", "setting": "[5]", "value": "inactive"},
      {"measurement": "inhibition", "setting": "[6]", "value": "inactive"},
      {"measurement": "inhibition", "setting": "[7]", "value": "inactive"},
      {"measurement": "inhibition", "setting": "[8]", "value": "inactive"},
      {"measurement": "inhibition", "setting": "[9]", "value": "inactive"},
      {"measurement": "inhibition", "setting": "[10]", "value": "inactive"},
      {"measurement": "inhibition", "setting": "[11]", "value": "inactive"},
      {"measurement": "inhibition", "setting": "[12]", "value": "inactive"},
      {"measurement": "Activity", "setting": "SH-SY5Y", "value": "Active"},
      {"measurement": "inhibition", "setting": "[13]", "value": "inactive"},
      {"measurement": "inhibition", "setting": "[14]", "value": "inactive"},
      {"measurement": "inhibition", "setting": "[15]", "value": "inactive"}
    ]},
    {"smiles": "Brc1ccccc1CSc1ncnc2[nH]cnc12", "values": [
      {"measurement": "inhibition", "setting": "[1]", "value": "Active"},
      {"measurement": "inhibition", "setting": "[2]", "value": "inactive"},
      {"measurement": "inhibition", "setting": "Homo sapiens", "value": "inactive"},
      {"measurement": "inhibition", "setting": "[3]", "value": "Active"},
      {"measurement": "inhibition", "setting": "[4]", "value": "inactive"},
      {"measurement": "inhibition", "setting": "[5]", "value": "inactive"},
      {"measurement": "inhibition", "setting": "[6]", "value": "inactive"},
      {"measurement": "inhibition", "setting": "[7]", "value": "inactive"},
      {"measurement": "inhibition", "setting": "[8]", "value": "inactive"},
      {"measurement": "inhibition", "setting": "[9]", "value": "inactive"},
      {"measurement": "inhibition", "setting": "[10]", "value": "inactive"},
      {"measurement": "inhibition", "setting": "[11]", "value": "inactive"},
      {"measurement": "inhibition", "setting": "[12]", "value": "inactive"},
      {"measurement": "Activity", "setting": "SH-SY5Y", "value": "Active"},
      {"measurement": "inhibition", "setting": "[13]", "value": "inactive"},
      {"measurement": "inhibition", "setting": "[14]", "value": "inactive"},
      {"measurement": "inhibition", "setting": "[15]", "value": "inactive"}
    ]},
    {"smiles": "Clc1cccc(CSc2ncnc3[nH]cnc23)c1", "values": [
      {"measurement": "inhibition", "setting": "[1]", "value": "Active"},
      {"measurement": "inhibition", "setting": "[2]", "value": "inactive"},
      {"measurement": "inhibition", "setting": "Homo sapiens", "value": "inactive"},
      {"measurement": "inhibition", "setting": "[3]", "value": "Active"},
      {"measurement": "inhibition", "setting": "[4]", "value": "inactive"},
      {"measurement": "inhibition", "setting": "[5]", "value": "inactive"},
      {"measurement": "inhibition", "setting": "[6]", "value": "inactive"},
      {"measurement": "inhibition", "setting": "[7]", "value": "inactive"},
      {"measurement": "inhibition", "setting": "[8]", "value": "inactive"},
      {"measurement": "inhibition", "setting": "[9]", "value": "inactive"},
      {"measurement": "inhibition", "setting": "[10]", "value": "inactive"},
      {"measurement": "inhibition", "setting": "[11]", "value": "inactive"},
      {"measurement": "inhibition", "setting": "[12]", "value": "inactive"},
      {"measurement": "Activity", "setting": "SH-SY5Y", "value": "Active"},
      {"measurement": "inhibition", "setting": "[13]", "value": "inactive"},
      {"measurement": "inhibition", "setting": "[14]", "value": "inactive"},
      {"measurement": "inhibition", "setting": "[15]", "value": "inactive"}
    ]}
  ]
}
